Experimental data: the supplement of paper PMC11451515

Test system: P12-Ichikawa
Assay: cell viability relative to DMSO control; higher = less cytotoxic
Settings: 48 h
Outline: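 Viability, reported as a per-plate percentage of DMSO wells with cell-free wells as background, came from CellTiter-Glo One luminescence. Reading took place after 48 h at 37°C. Before that, NOMO1 or SEM (500 cells/well) or P12-Ichikawa (1000 cells/well) leukemia cells, adapted for at least four passages in each medium, were seeded in 1536-well plates (5 μl) and pin-dosed with library compounds in DMSO, 47 μM to 0.79 nM over 11 threefold points.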

[1] = HPLM + 10% dialyzed FBS, 0.000781 µM
[2] = HPLM + 10% dialyzed FBS, 0.00234 µM
[3] = HPLM + 10% dialyzed FBS, 0.00702 µM
[4] = HPLM + 10% dialyzed FBS, 0.0211 µM
[5] = HPLM + 10% dialyzed FBS, 0.0632 µM
[6] = HPLM + 10% dialyzed FBS, 0.19 µM
[7] = HPLM + 10% dialyzed FBS, 0.569 µM
[8] = HPLM + 10% dialyzed FBS, 1.71 µM
[9] = HPLM + 10% dialyzed FBS, 5.12 µM
[10] = HPLM + 10% dialyzed FBS, 15.4 µM
[11] = HPLM + 10% dialyzed FBS, 46.1 µM
[12] = RPMI 5 mM glucose + 10% FBS, 0.000781 µM
[13] = RPMI 5 mM glucose + 10% FBS, 0.00234 µM
[14] = RPMI 5 mM glucose + 10% FBS, 0.00702 µM
[15] = RPMI 5 mM glucose + 10% FBS, 0.0211 µM
[16] = RPMI 5 mM glucose + 10% FBS, 0.0632 µM
[17] = RPMI 5 mM glucose + 10% FBS, 0.19 µM
[18] = RPMI 5 mM glucose + 10% FBS, 0.569 µM
[19] = RPMI 5 mM glucose + 10% FBS, 1.71 µM
[20] = RPMI 5 mM glucose + 10% FBS, 5.12 µM
[21] = RPMI 5 mM glucose + 10% FBS, 15.4 µM
[22] = RPMI 5 mM glucose + 10% FBS, 46.1 µM
[23] = RPMI 5 mM glucose + 10% dialyzed FBS, 0.000781 µM
[24] = RPMI 5 mM glucose + 10% dialyzed FBS, 0.00234 µM
[25] = RPMI 5 mM glucose + 10% dialyzed FBS, 0.00702 µM
[26] = RPMI 5 mM glucose + 10% dialyzed FBS, 0.0211 µM
[27] = RPMI 5 mM glucose + 10% dialyzed FBS, 0.0632 µM
[28] = RPMI 5 mM glucose + 10% dialyzed FBS, 0.19 µM
[29] = RPMI 5 mM glucose + 10% dialyzed FBS, 0.569 µM
[30] = RPMI 5 mM glucose + 10% dialyzed FBS, 1.71 µM
[31] = RPMI 5 mM glucose + 10% dialyzed FBS, 5.12 µM
[32] = RPMI 5 mM glucose + 10% dialyzed FBS, 15.4 µM
[33] = RPMI 5 mM glucose + 10% dialyzed FBS, 46.1 µM

| SMILES | cell viability [1] | cell viability [2] | cell viability [3] | cell viability [4] | cell viability [5] | cell viability [6] | cell viability [7] | cell viability [8] | cell viability [9] | cell viability [10] | cell viability [11] | cell viability [12] | cell viability [13] | cell viability [14] | cell viability [15] | cell viability [16] | cell viability [17] | cell viability [18] | cell viability [19] | cell viability [20] | cell viability [21] | cell viability [22] | cell viability [23] | cell viability [24] | cell viability [25] | cell viability [26] | cell viability [27] | cell viability [28] | cell viability [29] | cell viability [30] | cell viability [31] | cell viability [32] | cell viability [33] |
| --- | --- | --- | --- | --- | --- | --- | --- | --- | --- | --- | --- | --- | --- | --- | --- | --- | --- | --- | --- | --- | --- | --- | --- | --- | --- | --- | --- | --- | --- | --- | --- | --- | --- |
| Cl.Cl.Fc1ccc(C(OCCN2CCN(CCCc3ccccc3)CC2)c2ccc(F)cc2)cc1 | 105% | 104% | 109% | 112% | 116% | 109% | 109% | 113% | 120% | 113% | 78.4% | 114% | 133% | 118% | 123% | 136% | 126% | 126% | 124% | 122% | 124% | 73.9% | 115% | 121% | 119% | 117% | 127% | 121% | 122% | 115% | 120% | 120% | 62.8% |
| c1cc(OCCN2CCCCC2)cc(-c2n[nH]c3ccc(-c4nc[nH]n4)cc23)c1 | 109% | 114% | 110% | 116% | 117% | 118% | 121% | 116% | 122% | 123% | 124% | 112% | 111% | 118% | 116% | 123% | 114% | 114% | 132% | 128% | 128% | 111% | 99.4% | 111% | 114% | 19.2% | 117% | 116% | 121% | 115% | 108% | 123% | 116% |
| CC1OC(OC/2=C(/OC3=C(C(=CC(=C3)O)O)C2=O)C4=CC=C(O)C=C4)C(O)C(OC(C)=O)C1OC(C)=O (stereo not drawn) | 112% | 118% | 111% | 116% | 113% | 108% | 108% | 107% | 101% | 103% | 100% | 108% | 114% | 115% | 112% | 120% | 117% | 103% | 108% | 105% | 96.4% | 103% | 114% | 119% | 117% | 115% | 116% | 114% | 109% | 114% | 111% | 103% | 104% |
| COc1ccc2cccc(CCNC(C)=O)c2c1 | 104% | 100% | 102% | 102% | 96% | 103% | 99% | 104% | 102% | 92.7% | 89.6% | 98.3% | 104% | 105% | 109% | 103% | 107% | 104% | 101% | 99.6% | 97.8% | 95.9% | 97.6% | 103% | 110% | 96.8% | 104% | 104% | 97.4% | 93.8% | 94.3% | 98.2% | 89.6% |
| CCCn1c(=O)c2[nH]c(C34CC5CC3C[C@@H](C5)C4)nc2n(CCC)c1=O | 111% | 107% | 100% | 97.8% | 112% | 110% | 107% | 99.5% | 93.6% | 96.6% | 96.1% | 102% | 113% | 112% | 110% | 136% | 106% | 64.5% | 80.3% | 85.5% | 86.1% | 90% | 94.2% | 101% | 92.4% | 96.9% | 99.9% | 100% | 94.2% | 98.7% | 98% | 93.2% | 88.6% |
| c1ccc2c(Oc3nc(Nc4ccc(N5CCOCC5)cc4)c4ncn(C5CCCCC5)c4n3)cccc2c1 | 116% | 118% | 126% | 132% | 126% | 121% | 126% | 132% | 134% | 137% | 130% | – | – | – | – | – | – | – | – | – | – | – | – | – | – | – | – | – | – | – | – | – | – |
| CNC(=O)c1cc(Oc2ccc(NC(=O)Nc3cc(C(C)(C)C)nn3-c3ccc4ncccc4c3)c(F)c2)ccn1 | 111% | 120% | 124% | 128% | 139% | 134% | 132% | 131% | 134% | 139% | 125% | – | – | – | – | – | – | – | – | – | – | – | – | – | – | – | – | – | – | – | – | – | – |
| O=C1c2cccc(O)c2C(=O)c2c(O)cc(CO)cc21 | 97.1% | 100% | 99.9% | 98.1% | 92.7% | 91.2% | 95.2% | 92.8% | 91.9% | 90.7% | 93.4% | 89.6% | 90.1% | 93.7% | 98% | 92.3% | 97% | 88.2% | 97.1% | 92.1% | 96.5% | 104% | 91.1% | 92.2% | 91% | 93.4% | 91.8% | 91.5% | 89% | 86.7% | 88% | 88.3% | 91.3% |
| COc1cc2nc(-c3ccc(N4CCN(C)CC4)cc3)nc(NCCN3CCOCC3)c2cc1OC | 111% | 121% | 109% | 115% | 109% | 110% | 81.7% | 57.9% | 50% | 23.2% | 3.38% | 113% | 120% | 108% | 113% | 116% | 111% | 104% | 67% | 36.7% | 5.75% | 2.84% | 113% | 108% | 118% | 103% | 106% | 106% | 96.3% | 65.8% | 22.5% | 5.42% | 2.71% |
| O=C(NC1CC1)c1cccc(-c2ccc3c(NC(=O)C4CC4)n[nH]c3c2)c1 | 109% | 109% | 108% | 113% | 114% | 113% | 112% | 112% | 95.2% | 39.5% | 13.1% | 111% | 114% | 113% | 127% | 121% | 124% | 110% | 113% | 101% | 43.5% | 12.6% | 110% | 120% | 118% | 121% | 118% | 116% | 114% | 112% | 102% | 55.3% | 24.5% |
| N/C(=N\C(=O)c1nc(Cl)c(N)nc1N)NCc1ccccc1 | 101% | 106% | 105% | 103% | 108% | 105% | 108% | 108% | 101% | 98.7% | 70.9% | 84.9% | 96.9% | 83.3% | 92.1% | 99% | 103% | 106% | 95.1% | 107% | 96.5% | 58.4% | 82.5% | 94.1% | 94.1% | 88.2% | 94.4% | 101% | 103% | 106% | 98.2% | 76.1% | 51.4% |
| CN(C)[C@H]\1[C@@H]2[C@@H](O)[C@@H]\3C(=C)C4=C(C(=CC=C4)O)C(=O)C3=C(\O)[C@@]2(O)C(=O)\C(=C1O)C(N)=O | – | – | – | – | – | – | – | – | – | – | – | 115% | 120% | 124% | 126% | 115% | 128% | 120% | 125% | 122% | 111% | 99.1% | 126% | 122% | 119% | 123% | 129% | 128% | 118% | 117% | 125% | 119% | 107% |
| Cc1ccccc1C(C(=O)NC1CCCCC1)N(C(=O)CNc1ccc(C#N)cc1)c1cccc(F)c1 (stereo not drawn) | 111% | 113% | 107% | 105% | 114% | 103% | 106% | 104% | 102% | 104% | 99.2% | 73.9% | 104% | 110% | 112% | 112% | 102% | 102% | 102% | 99% | 95.6% | 94.6% | 64.4% | 110% | 110% | 112% | 104% | 92.7% | 103% | 92.5% | 91.3% | 98.8% | 98.6% |
| C[C@@H]1CN(CC(=O)N2CC(C)(C)c3ncc(Cc4ccc(F)cc4)cc32)[C@@H](CN2CCOC[C@H]2C)CN1 | 102% | 113% | 81.8% | 113% | 118% | 121% | 111% | 112% | 115% | 110% | 91.8% | 102% | 106% | 69.7% | 118% | 118% | 132% | 114% | 128% | 125% | 116% | 98.2% | 110% | 119% | 88.8% | 125% | 126% | 135% | 128% | 122% | 121% | 118% | 90.8% |
| CN(C)c1ccc(C(=O)NCCCCCCC(=O)NO)cc1 | 107% | 102% | 114% | 104% | 110% | 111% | 102% | 44% | 1.14% | 0.537% | 1.62% | 101% | 104% | 109% | 110% | 116% | 108% | 99.5% | 46.9% | 1.46% | 0.517% | 1.9% | 94.9% | 105% | 113% | 116% | 122% | 121% | 98.6% | 25.4% | 1.41% | 0.539% | 1.68% |
| Nc1ccc([S+](=O)([O-])Nc2ccccn2)cc1 | 117% | 116% | 115% | 123% | 117% | 117% | 130% | 119% | 115% | 120% | 125% | 105% | 105% | 113% | 117% | 118% | 112% | 121% | 116% | 127% | 123% | 127% | 113% | 117% | 116% | 113% | 119% | 115% | 125% | 119% | 124% | 131% | 127% |
